Values quoted from earlier work in patent US8509867B2, “Non-invasive measurement of analytes” (Cercacor Laboratories, Inc., priority 2002, dated 2013).

Legend:
[1] = i.v., rats (Merck)

COC(=O)c1ccccc1-c1c2ccc(=N)cc-2oc2cc(N)ccc12 [Rh123, (2-(6-Amino-3-imino-3H-xanthen-9-yl)benzoic acid methyl ester)]
intravenous lethal dose for animals (LD10): approximately 20 mg/kg of body weight | fifty percent lethality (LD50) [1]: 89.5 mg/kg
